Data on four molecules can be found in patent US7247641B2, “Compounds, derivatives, compositions, preparation and uses” (MGI GP, Inc., priority 2001, dated 2007).

For assay [1], the system named is ischemia and reperfusion of the heart in rabbits. The settings on record: cited from earlier work.
In assay [2] the test system is MSU crystal induced neutrophil migration in Swiss albino mice. Briefly: MSU crystal-induced neutrophil recruitment (peritonitis gout model). The assay is classed as in vivo, mouse. To be noted: 6 h. The method, then: Male outbread Swiss albino mice (20-22 g body weight) were purchased from Banton and Kingsman (T. O. strain; Hull, Humberside) and maintained on a standard chow pellet diet with tap water ad libitum and a 12:00 h light/dark cycle. All animals were housed for 1 week prior to experimentation to allow body weight to reach 28-30 g.
1,11b-dihydrobenzopyrano[4,3,2-de ]isoquinolin-1-one was dissolved in 100% DMSO at room temperature at a concentration of 45 mg in 2 ml. The compound was then injected into the peritoneal cavity, so as each mouse received a single dose corresponding to 45 mg/2 ml/kg (e.g. 60 μl for a mouse of 30 g). Control mice received DMSO at 2 ml/kg i.p. A third group of mice which were left untreated were added to control for potential effects of the vehicle. […]
MSU crystal-induced neutrophil recruitment was tested as follows. […] Peritonitis was induced by injection of 3 mg MSU crystals in 0.5 ml PBS (0.1 M, pH 7.4), and the recruitment of neutrophils into the cavity evaluated at the 6 h time point (Getting et al., 1997, J. Pharmacol. Exp. Ther. 283: 123-130). […]
An aliquot (100 μl) of the lavage fluid was then diluted 1:10 in Turk's solution (0.01% crystal violet in 3% acetic acid). The samples were then vortexed and 10 μl of the stained cell solution were placed in a Neubauer haematocymometer and neutrophils numbers counted using a light microscope (Olympus B061). […]

For the next assay, the system named is PARP. The settings on record: read-out: IC50 for inhibiting PARP; reported by Suto et al.; cited from earlier work.
For assay [3], the system named is focal cerebral ischemia in male Long-Evans rats. Briefly: Focal cerebral ischemia: right distal MCA cauterization with temporary bilateral CCA occlusion. To be noted: 24 h, mean±SD. The class given is in vivo, rat. The method, then:
Focal cerebral ischemia is produced by cauterization of the right distal MCA (middle cerebral artery) with bilateral temporary common carotid artery occlusion in male Long-Evans rats for 90 minutes. All procedures performed on the animals are approved by the University Institutional Animal Care and Use Committee of the University of Pennsylvania. A total of 42 rats (weights: 230-340 g) obtained from Charles River were used in this study. The animals fasted overnight with free access to water prior to the surgical procedure.
Two hours prior to MCA occlusion, varying amounts (control, n=14; 5 mg/kg, n=7; 10 mg/kg, n=7; 20 mg/kg, n=7; and 40 mg/kg, n=7) of the compound, 3,4-dihydro-5-[4-(1-piperidinyl)-butoxy]-1(2H)-isoquinolinone (“DPQ”) were dissolved in dimethyl sulfoxide (DMSO) using a sonicator. A volume of 1.28 ml/kg of the resulting solution was injected intraperitoneally into […].
The rats were then anesthetized with halothane (4% for induction and 0.8%-1.2% for the surgical procedure) in a mixture of 70% nitrous oxide and 30% oxygen. The body temperature was monitored by a rectal probe and maintained at 37.5±0.5° C. with a heating blanket regulated by a homeothermiic blanket control unit (Harvard Apparatus Limited, Kent, U.K.). A catheter (PE-50) was placed into the tail artery, and arterial pressure was continuously monitored and recorded on a Grass polygraph recorder (Model 7D, Grass Instruments, Quincy, Mass.). Samples for blood gas analysis (arterial pH, PaO2 and PaCO2) were also taken from the tail artery catheter and measured with a blood gas analyzer (ABL 30, Radiometer, Copenhagen, Denmark). Arterial blood samples were obtained 30 minutes after MCA occlusion.
The head of the animal was positioned in a stereotaxic frame, and a right parietal incision between the right lateral canthus and the external auditory meatus was made. Using a dental drill constantly cooled with saline, a 3 mm burr hole was prepared over the cortex supplied by the right MCA, 4 mm lateral to the sagittal suture and 5 mm caudal to the coronal suture. The dura mater and a thin inner bone layer were kept, care being taken to position the probe over a tissue area devoid of large blood vessels. The flow probe (tip diameter of 1 mm, fiber separation of 0.25 mm) was lowered to the bottom of the cranial burr hole using a micromanipulator. The probe was held stationary by a probe holder secured to the skull with dental cement. The microvascular blood flow in the right parietal cortex was continuously monitored with a laser Doppler flowmeter (FloLab, Moor, Devon, U.K., and Periflux 4001, Perimed, Stockholm, Sweden). […]

Broadly, the IC50 is the midpoint of a concentration-inhibition curve.

For `Oc1cccc2c(O)nccc12` [1,5-dihydroxyisoquinoline], the “reduction in infarct size” value in assay [1] (single injection 1 mg/kg) is given as 38-48%.

Consider `O=C1N=Cc2cccc3c2C1c1ccccc1O3` (stereo not drawn) [1,11b-dihydrobenzopyrano[4,3,2-de]isoquinolin-1-one], for which the “Neutrophils, mean ± S.E.” value in assay [2] (45 mg/kg i.p. 1 h prior to 3 mg MSU crystals, n=8, vehicle group 6.30 ± 0.33) is on record as 2.85 ± 0.34 (8)* 10^6 per mouse. Further, the “inhibition of cell influx vs. the vehicle group” value in assay [2] (45 mg/kg i.p.) stood at 55%.

As to `NC(=O)c1cccc(N)c1` [3-amino-benzamide], the “reduction in infarct size in the heart” value in assay [1] (single injection 10 mg/kg, one minute before occlusion or before reperfusion) is on record as 32-42%.

In the case of `O=C1NCCc2c(OCCCCN3CCCCC3)cccc21` [DPQ, 3,4-dihydro-5-[4-(1-piperidinyl)-butoxy]-1(2H)-isoquinolinone], the IC50 in the assay on PARP is 40 nM. In addition, the “damaged volume (infarct volume)” value in assay [3] (5 mg/kg i.p. 2 h before and 2 h after MCA occlusion, control 165.2±34.0) worked out at 106.7±23.2 mm^3; in assay [3] (10 mg/kg i.p. 2 h before and 2 h after MCA occlusion, control 165.2±34.0), 76.4±16.8 mm^3; in assay [3] (20 mg/kg i.p. 2 h before and 2 h after MCA occlusion, control 165.2±34.0), 110.2±42.0 mm^3; in assay [3] (40 mg/kg i.p., no significant difference from control 165.2±34.0) it was 135.6±44.8 mm^3.
